Data from patent US6482851B1, “Synthesis of dysidiolide and uses thereof” (Sloan-Kettering Institute for Cancer Research, priority 1998, dated 2002).

Tests used:
[1] = system: PC3, DU145 and MCF7 cells; assay: cell cycle distribution by DNA content histograms (FACS); format: cell-based, human
Method: Cells with 2n to 4n DNA content were distributed on a DNA histogram and estimations for the percentages of cells in G1(2n), S(2n<X<4N) and G2/M (4n) were calculated using Becton-Dickinson FACS analysis software.
A 20 mM stock solution of dysidiolide was prepared in dimethylsulfoxide (DMSO) and a pilot experiment was carried out to measure the effects of the drug on the viability (Trypan blue exclusion) and flow cytometric parameters of four human cancer cell lines: the prostate lines TSU-Pr1, PC3 and DU145, and the breast line, MCF7. Cultures were treated with 0, 2, 10 and 50 μM dysidiolide for 24 hr. Dysidiolide was cytotoxic to the four lines as evidenced by the loss of Trypan blue exclusion capability and by the appearance of sub-G1 fraction on flow cytometric (FACS) analysis (FIGS. 3 and 4A-D). […] (At 50 μM dysidiolide, the level of cell death was too high in TSU-Pr1 cells to fit a valid histogram (FIG. 5A)). These cell cycle changes are consistent with arrest prior to completion of the replicative (S) phase, or with cell death occurring preferentially in cells with a 4n DNA content (G2/M population).

[2] = biological target: T1, human cdc25A protein phosphatase (Homo sapiens, UniProt P30304); settings: cited from earlier work
T1 sequence (P30304 1-524): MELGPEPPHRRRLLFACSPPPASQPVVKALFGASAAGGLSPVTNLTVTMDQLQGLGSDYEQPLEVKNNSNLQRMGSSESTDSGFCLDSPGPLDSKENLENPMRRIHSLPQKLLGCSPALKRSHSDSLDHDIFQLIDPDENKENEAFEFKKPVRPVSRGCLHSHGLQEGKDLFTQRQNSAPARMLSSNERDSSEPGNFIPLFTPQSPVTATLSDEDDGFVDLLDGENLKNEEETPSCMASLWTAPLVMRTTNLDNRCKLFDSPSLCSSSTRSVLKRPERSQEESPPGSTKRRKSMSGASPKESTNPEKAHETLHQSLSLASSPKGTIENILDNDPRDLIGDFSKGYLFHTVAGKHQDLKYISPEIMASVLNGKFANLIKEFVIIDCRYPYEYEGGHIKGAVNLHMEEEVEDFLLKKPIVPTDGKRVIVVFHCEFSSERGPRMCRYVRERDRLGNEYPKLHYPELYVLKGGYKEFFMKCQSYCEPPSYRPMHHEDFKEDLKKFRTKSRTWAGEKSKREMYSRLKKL

## C=C(C)CCC[C@@]1(C)CCC[C@H]2C1=CC[C@H](C)[C@]2(C)C[C@H](O)C1=CC(=O)O[C@@H]1O (racemic) [dysidiolide]
[1]; MCF7 breast cancer cell line
  cell cycle distribution: loss of the G2/M peak and accumulation of cells in G1
[1]; PC3, DU145 and MCF7 cells at higher doses of drug, 24 hr
  cell cycle distribution: loss of a G2/M (4 n peak)
[2]
  inhibition of human cdc25A protein phosphatase: potent inhibitor
